# Results from ChEMBL document CHEMBL5506027, “Discovery of a Novel and Potent Cyclin-Dependent Kinase 8/19 (CDK8/19) Inhibitor for the Treatment of Cancer” (J Med Chem, 2024).
# Active and inactive are the calls of the source. The calls are words filed in the database; no cut-off is given here.
# Experiments:
# [1] = Oral bioavailability in rat at 10 mg/kg measured upto 24 hrs by LC-MS/MS analysis; assay type: ADME, organism-based; details: in vivo
# [2] = target: Cyclin-dependent kinase 2/cyclin E1 (Homo sapiens) (UniProt P24864+P24941); test: Inhibition of CDK2/Cyclin E1 (unknown origin) at 1 uM by luminescence based assay relative to control; assay type: protein-complex assay
# [3] = AUC(0 to 24 hrs) in mouse at 30 mg/kg, po measured upto 24 hrs by LC-MS/MS analysis; assay type: ADME, organism-based; details: in vivo
# [4] = Tmax in mouse at 30 mg/kg, po measured upto 24 hrs by LC-MS/MS analysis; assay type: ADME, organism-based; details: in vivo
# [5] = Half-life in monkey at 1 mg/kg, iv measured upto 24 hrs by LC-MS/MS anlaysis; assay type: ADME, organism-based, Macaca mulatta; details: rhesus monkey, in vivo
# [6] = target: CDK4/Cyclin D3 (Homo sapiens) (UniProt P11802+P30281); test: Inhibition of CDK4/cyclinD3 (unknown origin) at 1 uM by luminescence based assay relative to control; assay type: protein-complex assay
# [7] = target: CDK2/Cyclin A2 (Homo sapiens) (UniProt P24941+P20248); test: Inhibition of CDK2/CyclinA2 (unknown origin) at 1 uM by luminescence based assay relative to control; assay type: protein-complex assay
# [8] = target: CDK1/Cyclin E (Homo sapiens) (UniProt P06493+P24864); test: Inhibition of CDK1/cyclinE1 (unknown origin) at 1 uM by luminescence based assay relative to control; assay type: protein-complex assay
# [9] = target: T1, Cyclin-dependent kinase 5/CDK5 activator 1 (Homo sapiens) (UniProt Q00535+Q15078); test: Inhibition of CDK5/p35NCK (unknown origin) at 1 uM by luminescence based assay relative to control; assay type: protein-complex assay
# [10] = system: MV4-11; test: Antitumor activity against human MV4-11 cells xenografted in BALB/c nude mouse assessed as tumor growth inhibition at 3 mg/kg, po qd and measured twice a week for 3 weeks; assay type: functional; details: MV4-11, 504 h, read-out: TGI
# [11] = target: Cyclin-Y/Cyclin-dependent kinase 16 (Homo sapiens) (UniProt Q00536+Q8ND76); test: Inhibition of CDK16/cyclinY (unknown origin) at 1 uM by luminescence based assay relative to control; assay type: protein-complex assay
# [12] = Oral bioavailability in dog at 5 mg/kg measured upto 24 hrs by LC-MS/MS analysis; assay type: ADME, organism-based, Canis lupus familiaris; details: in vivo
# [13] = Dose normalized AUC in monkey at 5 mg/kg, po measured upto 24 hrs by LC-MS/MS analysis; assay type: ADME, organism-based, Macaca mulatta; details: rhesus monkey, in vivo
# [14] = target: T1, Cyclin-dependent kinase 5/CDK5 activator 1 (Homo sapiens); test: Inhibition of CDK5/p25NCK (unknown origin) at 1 uM by luminescence based assay relative to control; assay type: protein-complex assay
# [15] = target: CDK18/Cyclin Y (Homo sapiens) (UniProt Q07002+Q8ND76); test: Inhibition of CDK18/cyclinY (unknown origin) at 1 uM by luminescence based assay relative to control; assay type: protein-complex assay
# [16] = target: Signal transducer and activator of transcription 1-alpha/beta (Homo sapiens) (UniProt P42224); test: Induction of STAT1 (unknown origin) phosphorylation at Ser727 residues by Western blotting analysis; details: filed as activator, dose 0.0032-10 µM
# [17] = Oral bioavailability in mouse at 30 mg/kg measured upto 24 hrs by LC-MS/MS analysis; assay type: ADME, organism-based; details: in vivo
# [18] = system: Z-138; test: Antitumor activity against human Z138 cells xenografted in po dosed CB17 SCID mouse assessed as tumor growth inhibition administered once daily for 21 days; assay type: functional, organism-based; details: dose 2.5-5 mg/kg, time 21.0 day
# [19] = Cmax in rat at 10 mg/kg, po measured upto 24 hrs by LC-MS/MS analysis; assay type: ADME, organism-based; details: in vivo
# [20] = Tmax in dog at 5 mg/kg, po measured upto 24 hrs by LC-MS/MS analysis; assay type: ADME, organism-based, Canis lupus familiaris; details: in vivo
# [21] = system: MV4-11; test: Antitumor activity against human MV4-11 cells xenografted in BALB/c nude mouse assessed as tumor growth inhibition at 10 mg/kg, po qd and measured twice a week for 3 weeks; assay type: functional; details: MV4-11, 504 h, read-out: TGI
# [22] = Toxicity in BALB/c nude mouse xenografted with human MV4-11 cells assessed as change in body weight at 3 mg/kg, ip qd and measured twice a week for 3 weeks in presence of carboplatin; assay type: organism-based; details: in vivo, 504 h
# [23] = Dose normalized AUC in dog at 5 mg/kg, po measured upto 24 hrs by LC-MS/MS analysis; assay type: ADME, organism-based, Canis lupus familiaris; details: in vivo
# [24] = Volume of distribution at steady state in monkey at 1 mg/kg, iv measured upto 24 hrs by LC-MS/MS anlaysis; assay type: ADME, organism-based, Macaca mulatta; details: rhesus monkey, in vivo, read-out: Vdss
# [25] = AUC(0 to 24 hrs) in monkey at 5 mg/kg, po measured upto 24 hrs by LC-MS/MS analysis; assay type: ADME, organism-based, Macaca mulatta; details: rhesus monkey, in vivo
# [26] = target: CDK6/cyclin D1 (Homo sapiens) (UniProt P24385+Q00534); test: Inhibition of CDK6/cyclinD1 (unknown origin) at 1 uM by luminescence based assay relative to control; assay type: protein-complex assay
# [27] = target: Cyclin-dependent kinase 8 (Homo sapiens, UniProt P49336); test: Inhibition of CDK8 (unknown origin) assessed as residual activity at 500 nM by ADP-Glo assay
# [28] = Cmax in mouse at 30 mg/kg, po measured upto 24 hrs by LC-MS/MS analysis; assay type: ADME, organism-based; details: in vivo
# [29] = system: MDA-MB-231; test: Inhibition of cell growth in human MDA-MB-231 cells; assay type: functional, cell-based
# [30] = Cmax in dog at 5 mg/kg, po measured upto 24 hrs by LC-MS/MS analysis; assay type: ADME, organism-based, Canis lupus familiaris; details: in vivo
# [31] = Dose normalized AUC in mouse at 5 mg/kg, po measured upto 24 hrs by LC-MS/MS analysis; assay type: ADME, organism-based; details: in vivo
# [32] = AUC(0 to 24 hrs) in dog at 3 mg/kg, po measured upto 24 hrs by LC-MS/MS analysis; assay type: ADME, organism-based, Canis lupus familiaris; details: in vivo
# [33] = Tmax in mouse at 5 mg/kg, po measured upto 24 hrs by LC-MS/MS analysis; assay type: ADME, organism-based; details: in vivo
# [34] = Selectivity ratio of IC50 for CDK5/p25NCK (unknown origin) to IC50 for CDK8/Cyclin C (unknown origin)
# [35] = system: Mus musculus; test: In vivo inhibition of STAT3 phosphorylation in BALB/c nude mouse tumor xenografted with human MV4-11 cells at 60 mg/kg, po qd for 3 weeks and measured 8 to 24 hrs post last dose; assay type: functional, organism-based; details: time 22.0 day
# [36] = Selectivity ratio of IC50 for CDK7/CyclinH/MAT1 (unknown origin) to IC50 for CDK8/Cyclin C (unknown origin)
# [37] = Oral bioavailability in dog at 3 mg/kg measured upto 24 hrs by LC-MS/MS analysis; assay type: ADME, organism-based, Canis lupus familiaris; details: in vivo
# [38] = Dose normalized AUC in rat at 5 mg/kg, po measured upto 24 hrs by LC-MS/MS analysis; assay type: ADME, organism-based; details: in vivo
# [39] = AUC(0 to 24 hrs) in rat at 5 mg/kg, po measured upto 24 hrs by LC-MS/MS analysis; assay type: ADME, organism-based; details: in vivo
# [40] = AUC(0 to 24 hrs) in mouse at 5 mg/kg, po measured upto 24 hrs by LC-MS/MS analysis; assay type: ADME, organism-based; details: in vivo
# [41] = Tmax in dog at 3 mg/kg, po measured upto 24 hrs by LC-MS/MS analysis; assay type: ADME, organism-based, Canis lupus familiaris; details: in vivo
# [42] = Tmax in rat at 5 mg/kg, po measured upto 24 hrs by LC-MS/MS analysis; assay type: ADME, organism-based; details: in vivo
# T1 sequence (Q00535 whole entry): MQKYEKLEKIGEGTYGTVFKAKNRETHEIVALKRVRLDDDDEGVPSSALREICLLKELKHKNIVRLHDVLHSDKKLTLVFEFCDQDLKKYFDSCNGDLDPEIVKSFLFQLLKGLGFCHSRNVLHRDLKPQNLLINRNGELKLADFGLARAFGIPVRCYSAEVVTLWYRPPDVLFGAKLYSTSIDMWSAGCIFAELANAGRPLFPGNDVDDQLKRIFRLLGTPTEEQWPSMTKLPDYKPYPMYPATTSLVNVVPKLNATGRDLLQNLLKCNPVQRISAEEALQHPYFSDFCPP
# T1 sequence (Q15078 99-307 partner limits assumed): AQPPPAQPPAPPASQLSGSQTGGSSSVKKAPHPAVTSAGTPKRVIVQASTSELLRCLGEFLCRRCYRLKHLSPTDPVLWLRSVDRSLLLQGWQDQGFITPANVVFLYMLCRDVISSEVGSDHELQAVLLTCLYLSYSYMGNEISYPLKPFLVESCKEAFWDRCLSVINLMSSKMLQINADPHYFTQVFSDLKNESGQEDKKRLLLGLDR
# Sequence of CDK1/Cyclin E (Homo sapiens) (P06493 whole entry, looked up): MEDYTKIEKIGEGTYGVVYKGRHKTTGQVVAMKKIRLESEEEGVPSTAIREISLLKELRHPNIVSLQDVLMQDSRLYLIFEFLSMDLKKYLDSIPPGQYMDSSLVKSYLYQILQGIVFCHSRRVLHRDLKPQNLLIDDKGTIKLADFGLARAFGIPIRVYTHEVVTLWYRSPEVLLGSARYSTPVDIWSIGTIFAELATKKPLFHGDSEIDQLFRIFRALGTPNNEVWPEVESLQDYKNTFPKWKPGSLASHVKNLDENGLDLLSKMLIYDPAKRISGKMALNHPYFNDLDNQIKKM
# Sequence of CDK1/Cyclin E (Homo sapiens) (P24864 whole entry, looked up): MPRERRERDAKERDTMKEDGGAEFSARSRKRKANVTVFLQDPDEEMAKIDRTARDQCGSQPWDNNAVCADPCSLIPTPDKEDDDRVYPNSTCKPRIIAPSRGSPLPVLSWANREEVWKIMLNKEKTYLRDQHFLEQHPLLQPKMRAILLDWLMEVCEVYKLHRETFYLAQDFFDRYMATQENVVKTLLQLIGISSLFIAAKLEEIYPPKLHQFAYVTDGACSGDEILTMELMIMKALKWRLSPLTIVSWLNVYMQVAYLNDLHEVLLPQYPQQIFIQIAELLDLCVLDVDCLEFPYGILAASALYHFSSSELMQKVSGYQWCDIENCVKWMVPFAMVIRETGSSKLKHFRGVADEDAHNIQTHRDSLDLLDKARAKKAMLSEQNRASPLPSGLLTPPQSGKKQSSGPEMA
# Sequence of Signal transducer and activator of transcription 1-alpha/beta (Homo sapiens) (P42224 whole entry): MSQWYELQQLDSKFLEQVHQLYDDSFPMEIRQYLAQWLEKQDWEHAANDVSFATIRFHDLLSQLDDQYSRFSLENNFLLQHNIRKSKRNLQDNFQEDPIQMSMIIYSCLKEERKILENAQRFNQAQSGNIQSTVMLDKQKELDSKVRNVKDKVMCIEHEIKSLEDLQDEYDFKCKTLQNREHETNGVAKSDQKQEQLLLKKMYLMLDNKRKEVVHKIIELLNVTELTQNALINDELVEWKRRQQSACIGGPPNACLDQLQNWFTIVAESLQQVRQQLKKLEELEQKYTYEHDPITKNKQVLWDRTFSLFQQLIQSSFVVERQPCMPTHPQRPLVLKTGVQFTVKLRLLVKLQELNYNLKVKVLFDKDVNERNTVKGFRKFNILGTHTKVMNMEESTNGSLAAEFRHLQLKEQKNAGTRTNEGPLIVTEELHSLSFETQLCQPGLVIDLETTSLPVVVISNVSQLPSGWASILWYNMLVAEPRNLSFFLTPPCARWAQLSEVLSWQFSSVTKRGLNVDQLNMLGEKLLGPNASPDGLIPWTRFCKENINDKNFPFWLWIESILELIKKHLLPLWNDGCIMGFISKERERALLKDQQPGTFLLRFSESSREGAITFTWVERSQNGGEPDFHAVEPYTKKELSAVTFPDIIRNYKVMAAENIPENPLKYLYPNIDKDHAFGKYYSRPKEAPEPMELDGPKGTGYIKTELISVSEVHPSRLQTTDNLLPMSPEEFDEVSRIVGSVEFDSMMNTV
# Sequence of Cyclin-dependent kinase 8 (P49336 whole entry): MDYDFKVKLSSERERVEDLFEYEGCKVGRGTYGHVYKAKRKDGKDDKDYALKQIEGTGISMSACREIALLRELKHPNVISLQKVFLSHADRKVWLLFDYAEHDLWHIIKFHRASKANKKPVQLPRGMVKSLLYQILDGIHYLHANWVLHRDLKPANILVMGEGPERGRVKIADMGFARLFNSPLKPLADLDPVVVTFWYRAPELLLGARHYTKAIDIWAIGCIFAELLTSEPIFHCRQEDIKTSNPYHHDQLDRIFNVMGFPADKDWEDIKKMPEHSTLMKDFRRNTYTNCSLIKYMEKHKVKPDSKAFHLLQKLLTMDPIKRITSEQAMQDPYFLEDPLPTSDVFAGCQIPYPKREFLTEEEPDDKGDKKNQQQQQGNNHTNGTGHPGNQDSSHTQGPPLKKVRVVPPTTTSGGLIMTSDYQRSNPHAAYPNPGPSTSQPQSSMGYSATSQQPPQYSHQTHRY
compound,measurement,setting,value
FC(F)c1c(Br)c(Br)cc2c1nc(N1CCNCC1)n2C1CCOCC1,bioavailability,[1],89%
same,inhibition,[2],94.8%
same,AUC(0-t) at 24 h,[3],23900 ng·h/mL
same,Tmax,[4],1.5 h
same,half-life,[5],7 h
same,inhibition,[6],58%
same,inhibition,[7],84.9%
same,inhibition,[8],63.4%
same,inhibition,[9],75.3%
same,inhibition in vivo at 3 mg/kg,[10],29%
same,inhibition,[11],64.1%
same,bioavailability,[12],85%
same,AUC/dose,[13],2503 ng·h/mL
same,inhibition,[14],88.3%
same,inhibition,[15],65%
same,Activity,[16],Dose-Dependent Effect
same,bioavailability,[17],67%
same,Activity,[18],Dose-Dependent Effect
same,Cmax,[19],190 ng/mL
same,Tmax,[20],2 h
same,inhibition in vivo at 10 mg/kg,[21],36%
same,Activity,[22],Non-Toxic
same,AUC/dose,[23],1117 ng·h/mL
same,Vd,[24],7.05 L/kg
same,AUC(0-t) at 24 h,[25],12500 ng·h/mL
same,inhibition,[26],19.4%
same,Activity,[27],14%
same,Cmax,[28],2280 ng/mL
same,IC50,[29],40 nM
same,Cmax,[30],475 ng/mL
Cc1c(Br)c(Br)c2c3c1nc(N1CCNCC1)n3CCC2 [SEL-120 FREE BASE],AUC/dose,[31],270 ng·h/mL
same,AUC(0-t) at 24 h,[32],2060 ng·h/mL
same,Tmax,[33],1.3 h
same,Ratio IC50,[34],0.1
same,inhibition,[35],Active
same,Ratio IC50,[36],2.9
same,bioavailability,[37],136%
same,AUC/dose,[38],11.2 ng·h/mL
same,AUC(0-t) at 24 h,[39],56 ng·h/mL
same,AUC(0-t) at 24 h,[40],1350 ng·h/mL
same,Tmax,[41],4.18 h
same,Tmax,[42],1.67 h
